Experimental data published in PubChem BioAssay AID1919001 (Molecular Pharmacology Branch, DTP, NCI, 2023).

Test system: 699152-130-R-J1-PDC complex spheroid growth
Test: Anticancer human tumor 699152-130-R-J1-PDC patient-derived pancreatic carcinoma cell line growth inhibition [AhR]
Settings: for IC50: curve of first compound; for viability, T/C: stronger effect = lower value
How it was run: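 Complex tumor spheroids co-cultured with HUVEC and human MSC stroma; AhR antagonists tested in combination with standard-of-care and investigational agents. Top concentration at or near clinical Cmax (else 10 microM), half-log dilutions; growth expressed as percent test/control.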

[1] = second compound 0.1 µM, first compound 0.0316 µM
[2] = second compound 0.1 µM, first compound 0.1 µM
[3] = second compound 0.1 µM, first compound 0.316 µM
[4] = second compound 0.1 µM, first compound 1 µM
[5] = second compound 0.1 µM, first compound 3.16 µM
[6] = second compound 0.1 µM, first compound 10 µM
[7] = second compound 0.316 µM, first compound 0.0316 µM
[8] = second compound 0.316 µM, first compound 0.1 µM
[9] = second compound 0.316 µM, first compound 0.316 µM
[10] = second compound 0.316 µM, first compound 1 µM
[11] = second compound 0.316 µM, first compound 3.16 µM
[12] = second compound 0.316 µM, first compound 10 µM
[13] = second compound 1 µM, first compound 0.0316 µM
[14] = second compound 1 µM, first compound 0.1 µM
[15] = second compound 1 µM, first compound 0.316 µM
[16] = second compound 1 µM, first compound 1 µM
[17] = second compound 1 µM, first compound 3.16 µM
[18] = second compound 1 µM, first compound 10 µM
[19] = second compound 3.16 µM, first compound 0.0316 µM
[20] = second compound 3.16 µM, first compound 0.1 µM
[21] = second compound 3.16 µM, first compound 0.316 µM
[22] = second compound 3.16 µM, first compound 1 µM
[23] = second compound 3.16 µM, first compound 3.16 µM
[24] = second compound 3.16 µM, first compound 10 µM
[25] = second compound 10 µM, first compound 0.0316 µM
[26] = second compound 10 µM, first compound 0.1 µM
[27] = second compound 10 µM, first compound 0.316 µM
[28] = second compound 10 µM, first compound 1 µM
[29] = second compound 10 µM, first compound 3.16 µM
[30] = second compound 10 µM, first compound 10 µM
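Also: compound exposure lasted 7 days after spheroids had grown for 3 days.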

CC1COCCN1c1cc(C2(S(C)(=N)=O)CC2)nc(-c2ccnc3[nH]ccc23)n1 (stereo not given) + Cc1ccccc1N=Nc1ccc(NC(=O)c2ccnn2C)c(C)c1
IC50 (second compound 0.1 µM): > 10 µM | IC50 (second compound 0.316 µM): > 10 µM | IC50 (second compound 1 µM): > 10 µM | IC50 (second compound 3.16 µM): > 10 µM | IC50 (second compound 10 µM): > 10 µM | viability, T/C [1]: 109% | viability, T/C [2]: 109% | viability, T/C [3]: 86.1% | viability, T/C [4]: 88.9% | viability, T/C [5]: 88.4% | viability, T/C [6]: 73.7% | viability, T/C [7]: 92% | viability, T/C [8]: 98% | viability, T/C [9]: 98.4% | viability, T/C [10]: 101% | viability, T/C [11]: 84.9% | viability, T/C [12]: 65.8% | viability, T/C [13]: 90.5% | viability, T/C [14]: 101% | viability, T/C [15]: 99.5% | viability, T/C [16]: 95.9% | viability, T/C [17]: 84.8% | viability, T/C [18]: 65.3% | viability, T/C [19]: 105% | viability, T/C [20]: 97% | viability, T/C [21]: 97.9% | viability, T/C [22]: 99% | viability, T/C [23]: 79.2% | viability, T/C [24]: 69.8% | viability, T/C [25]: 111% | viability, T/C [26]: 125% | viability, T/C [27]: 112% | viability, T/C [28]: 104% | viability, T/C [29]: 94.8% | viability, T/C [30]: 80.6%

COc1ccc([C@@H](O)c2cc(-c3ncnc4cc(N5CCOCC5)ccc34)c(F)cc2Cl)nn1 + Cc1ccccc1N=Nc1ccc(NC(=O)c2ccnn2C)c(C)c1
IC50 (second compound 0.1 µM): 4.78 µM | IC50 (second compound 0.316 µM): 4.07 µM | IC50 (second compound 1 µM): 5.29 µM | IC50 (second compound 3.16 µM): 5.32 µM | IC50 (second compound 10 µM): 4.79 µM | viability, T/C [1]: 93.5% | viability, T/C [2]: 108% | viability, T/C [3]: 90% | viability, T/C [4]: 81.4% | viability, T/C [5]: 61.7% | viability, T/C [6]: 30.5% | viability, T/C [7]: 83.7% | viability, T/C [8]: 91.8% | viability, T/C [9]: 97.5% | viability, T/C [10]: 80% | viability, T/C [11]: 55.6% | viability, T/C [12]: 32.3% | viability, T/C [13]: 96.8% | viability, T/C [14]: 91.8% | viability, T/C [15]: 87.2% | viability, T/C [16]: 79.5% | viability, T/C [17]: 61.1% | viability, T/C [18]: 35.6% | viability, T/C [19]: 93.8% | viability, T/C [20]: 98.4% | viability, T/C [21]: 90% | viability, T/C [22]: 86.5% | viability, T/C [23]: 61.9% | viability, T/C [24]: 35.3% | viability, T/C [25]: 107% | viability, T/C [26]: 111% | viability, T/C [27]: 110% | viability, T/C [28]: 94.5% | viability, T/C [29]: 61% | viability, T/C [30]: 31.1%

O=C(C=Cn1cnc(-c2cc(C(F)(F)F)cc(C(F)(F)F)c2)n1)NNc1cnccn1 + Cc1ccccc1N=Nc1ccc(NC(=O)c2ccnn2C)c(C)c1
IC50 (second compound 0.1 µM): > 3 µM | IC50 (second compound 0.316 µM): > 3 µM | IC50 (second compound 1 µM): > 3 µM | IC50 (second compound 3.16 µM): > 3 µM | IC50 (second compound 10 µM): > 3 µM | viability, T/C (second compound 0.1 µM, first compound 0.00949 µM): 92.5% | viability, T/C (second compound 0.1 µM, first compound 0.03 µM): 84.5% | viability, T/C (second compound 0.1 µM, first compound 0.0949 µM): 87.8% | viability, T/C (second compound 0.1 µM, first compound 0.3 µM): 75.1% | viability, T/C (second compound 0.1 µM, first compound 0.949 µM): 78.1% | viability, T/C (second compound 0.1 µM, first compound 3 µM): 57.5% | viability, T/C (second compound 0.316 µM, first compound 0.00949 µM): 85.5% | viability, T/C (second compound 0.316 µM, first compound 0.03 µM): 82% | viability, T/C (second compound 0.316 µM, first compound 0.0949 µM): 82.7% | viability, T/C (second compound 0.316 µM, first compound 0.3 µM): 79.3% | viability, T/C (second compound 0.316 µM, first compound 0.949 µM): 69.1% | viability, T/C (second compound 0.316 µM, first compound 3 µM): 58% | viability, T/C (second compound 1 µM, first compound 0.00949 µM): 92% | viability, T/C (second compound 1 µM, first compound 0.03 µM): 90.8% | viability, T/C (second compound 1 µM, first compound 0.0949 µM): 93.2% | viability, T/C (second compound 1 µM, first compound 0.3 µM): 78.7% | viability, T/C (second compound 1 µM, first compound 0.949 µM): 74.2% | viability, T/C (second compound 1 µM, first compound 3 µM): 61.6% | viability, T/C (second compound 3.16 µM, first compound 0.00949 µM): 97.6% | viability, T/C (second compound 3.16 µM, first compound 0.03 µM): 115% | viability, T/C (second compound 3.16 µM, first compound 0.0949 µM): 98.6% | viability, T/C (second compound 3.16 µM, first compound 0.3 µM): 69.6% | viability, T/C (second compound 3.16 µM, first compound 0.949 µM): 76.4% | viability, T/C (second compound 3.16 µM, first compound 3 µM): 66.6% | viability, T/C (second compound 10 µM, first compound 0.00949 µM): 120% | viability, T/C (second compound 10 µM, first compound 0.03 µM): 112% | viability, T/C (second compound 10 µM, first compound 0.0949 µM): 91.7% | viability, T/C (second compound 10 µM, first compound 0.3 µM): 77.5% | viability, T/C (second compound 10 µM, first compound 0.949 µM): 69.9% | viability, T/C (second compound 10 µM, first compound 3 µM): 69.7%
